Assay results as given in patent US10544143B2, “4-azaindole compounds” (BRISTOL-MYERS SQUIBB COMPANY, priority 2017, dated 2020).

How the values were obtained:
[1] = biological target: human TLR9 (Homo sapiens (Human), UniProt Q9NR96); assay: TLR9 inhibition reporter assay (HEK-Blue SEAP); conditions: read-out: TLR9 IC50; HEK-Blue cells overexpressing human TLR9, SEAP reporter, ODN2006 5 nM;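 further: SEAP driven by an IFN-β minimal promoter with NF-κB and AP-1 sites, read after 22 h, compounds dosed 0.05 nM–50 µM, inhibition scaled between agonist plus DMSO and reference-inhibitor wells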
[2] = biological target: human TLR8 (Homo sapiens (Human), UniProt Q9NR97); assay: TLR8 inhibition reporter assay (HEK-Blue SEAP); conditions: read-out: TLR8 IC50; HEK-Blue cells overexpressing human TLR8, SEAP reporter, R848 15.9 μM;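 further: SEAP driven by IFN-β minimal promoter carrying NF-κB and AP-1 sites, compounds dosed 0.05 nM to 50 µM for 22 h, inhibition scaled between agonist-plus-DMSO and reference-inhibitor wells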
[3] = biological target: human TLR7 (Homo sapiens (Human), UniProt Q9NYK1); assay: TLR7 inhibition reporter assay (HEK-Blue SEAP); format: cell-based; conditions: HEK-Blue cells overexpressing human TLR7, SEAP reporter, gardiquimod 7.5 μM
human TLR7, sequence (Q9NYK1 27-1049): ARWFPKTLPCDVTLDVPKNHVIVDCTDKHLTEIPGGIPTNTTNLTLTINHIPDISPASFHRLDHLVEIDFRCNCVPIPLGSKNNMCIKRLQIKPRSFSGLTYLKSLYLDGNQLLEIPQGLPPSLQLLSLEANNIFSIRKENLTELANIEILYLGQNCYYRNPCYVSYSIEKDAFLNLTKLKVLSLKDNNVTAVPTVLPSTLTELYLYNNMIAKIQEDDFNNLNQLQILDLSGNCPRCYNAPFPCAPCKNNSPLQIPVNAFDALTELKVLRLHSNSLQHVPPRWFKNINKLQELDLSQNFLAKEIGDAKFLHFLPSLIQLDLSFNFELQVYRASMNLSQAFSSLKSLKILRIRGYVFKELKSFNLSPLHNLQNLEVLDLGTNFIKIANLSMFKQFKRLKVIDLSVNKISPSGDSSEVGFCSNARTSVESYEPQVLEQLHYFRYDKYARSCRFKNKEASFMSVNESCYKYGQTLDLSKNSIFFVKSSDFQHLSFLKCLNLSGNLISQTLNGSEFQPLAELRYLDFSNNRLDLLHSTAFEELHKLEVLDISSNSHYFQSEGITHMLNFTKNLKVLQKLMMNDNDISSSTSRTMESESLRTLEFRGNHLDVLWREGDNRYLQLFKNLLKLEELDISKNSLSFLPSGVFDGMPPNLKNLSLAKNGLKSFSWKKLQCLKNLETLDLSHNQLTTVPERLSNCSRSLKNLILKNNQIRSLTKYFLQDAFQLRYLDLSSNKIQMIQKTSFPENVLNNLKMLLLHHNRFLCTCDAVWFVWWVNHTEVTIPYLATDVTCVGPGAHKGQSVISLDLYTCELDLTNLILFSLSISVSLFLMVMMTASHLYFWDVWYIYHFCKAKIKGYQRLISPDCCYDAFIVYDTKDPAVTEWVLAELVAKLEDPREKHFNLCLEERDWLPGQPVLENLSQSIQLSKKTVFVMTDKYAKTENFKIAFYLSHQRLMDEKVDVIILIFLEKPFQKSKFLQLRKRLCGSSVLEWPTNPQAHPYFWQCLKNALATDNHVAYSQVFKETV

human TLR9, sequence (Q9NR96 26-1032): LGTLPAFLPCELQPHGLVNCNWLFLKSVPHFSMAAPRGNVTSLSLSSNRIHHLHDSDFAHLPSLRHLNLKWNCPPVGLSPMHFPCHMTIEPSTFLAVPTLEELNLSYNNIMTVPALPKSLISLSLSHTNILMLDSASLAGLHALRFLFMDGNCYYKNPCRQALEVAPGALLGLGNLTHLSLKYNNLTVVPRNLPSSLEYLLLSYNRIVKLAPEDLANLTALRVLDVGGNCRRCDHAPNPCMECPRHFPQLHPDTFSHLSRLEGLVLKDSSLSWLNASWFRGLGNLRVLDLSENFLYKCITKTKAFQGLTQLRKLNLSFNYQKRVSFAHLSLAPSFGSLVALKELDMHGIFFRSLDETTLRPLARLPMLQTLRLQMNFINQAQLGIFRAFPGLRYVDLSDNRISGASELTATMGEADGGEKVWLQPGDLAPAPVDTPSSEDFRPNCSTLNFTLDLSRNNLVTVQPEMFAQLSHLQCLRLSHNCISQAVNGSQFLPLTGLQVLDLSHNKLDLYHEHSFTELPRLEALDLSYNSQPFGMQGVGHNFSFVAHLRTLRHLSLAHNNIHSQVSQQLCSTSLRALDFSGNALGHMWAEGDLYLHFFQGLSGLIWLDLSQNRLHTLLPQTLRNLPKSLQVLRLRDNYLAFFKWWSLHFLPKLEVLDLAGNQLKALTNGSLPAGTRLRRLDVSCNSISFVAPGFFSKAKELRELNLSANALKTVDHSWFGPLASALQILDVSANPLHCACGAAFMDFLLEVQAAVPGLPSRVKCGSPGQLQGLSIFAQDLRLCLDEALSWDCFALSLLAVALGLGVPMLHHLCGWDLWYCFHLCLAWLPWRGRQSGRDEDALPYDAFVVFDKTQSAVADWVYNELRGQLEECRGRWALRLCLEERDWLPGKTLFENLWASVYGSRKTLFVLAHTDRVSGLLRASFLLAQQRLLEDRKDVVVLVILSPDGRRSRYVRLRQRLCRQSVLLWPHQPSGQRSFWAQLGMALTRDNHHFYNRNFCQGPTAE
human TLR8, sequence (Q9NR97 27-1041): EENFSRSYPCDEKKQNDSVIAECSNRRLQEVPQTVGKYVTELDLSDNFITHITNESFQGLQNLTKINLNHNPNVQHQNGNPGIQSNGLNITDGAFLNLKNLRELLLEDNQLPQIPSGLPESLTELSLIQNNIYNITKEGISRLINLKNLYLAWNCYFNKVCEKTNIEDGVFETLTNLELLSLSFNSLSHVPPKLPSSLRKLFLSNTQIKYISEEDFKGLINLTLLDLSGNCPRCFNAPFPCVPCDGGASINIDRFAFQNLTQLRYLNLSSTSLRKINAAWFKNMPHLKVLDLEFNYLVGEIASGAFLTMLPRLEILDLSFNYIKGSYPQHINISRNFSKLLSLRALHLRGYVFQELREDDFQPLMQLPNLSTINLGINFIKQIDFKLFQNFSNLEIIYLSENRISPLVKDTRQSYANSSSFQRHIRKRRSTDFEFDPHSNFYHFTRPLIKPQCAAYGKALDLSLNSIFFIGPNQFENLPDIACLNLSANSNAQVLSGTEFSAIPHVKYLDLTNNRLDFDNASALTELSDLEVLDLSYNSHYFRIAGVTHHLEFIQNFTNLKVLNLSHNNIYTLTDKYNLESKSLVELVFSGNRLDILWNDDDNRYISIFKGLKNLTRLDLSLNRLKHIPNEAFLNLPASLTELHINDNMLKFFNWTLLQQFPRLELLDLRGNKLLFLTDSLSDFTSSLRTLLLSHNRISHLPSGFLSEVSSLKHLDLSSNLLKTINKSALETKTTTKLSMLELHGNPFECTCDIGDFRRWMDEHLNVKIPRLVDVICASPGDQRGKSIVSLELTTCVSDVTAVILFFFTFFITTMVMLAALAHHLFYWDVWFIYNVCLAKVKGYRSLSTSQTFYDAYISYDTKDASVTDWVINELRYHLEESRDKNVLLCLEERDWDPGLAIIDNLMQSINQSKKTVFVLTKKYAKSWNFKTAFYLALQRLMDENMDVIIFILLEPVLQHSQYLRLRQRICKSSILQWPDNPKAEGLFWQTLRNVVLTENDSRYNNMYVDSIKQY

Row | IC50 [1] | IC50 [2] | IC50 [3] | Compound
1 | 1440 nM | 3.3 nM | 4 nM | Cc1c(-c2[nH]c3ccc(C4CCC(NC5CCOCC5)CC4)nc3c2C(C)C)cn2ncnc2c1C (stereo not drawn) [Example 453]
2 | 2390 nM | 0.68 nM | 1.2 nM | Cc1c(-c2[nH]c3ccc(C4CCC(NCC(C)(C)S(C)(=O)=O)CC4)nc3c2C(C)C)cn2ncnc2c1C (stereo not drawn) [Example 454]
3 | 9200 nM | 12 nM | 14 nM | Cc1c(-c2[nH]c3ccc(C4CCC(NCC(C)(C)S(C)(=O)=O)CC4)nc3c2C(C)C)cn2ncnc2c1C (stereo not drawn) [Example 455]
4 | 7730 nM | 8.1 nM | 2.6 nM | Cc1c(-c2[nH]c3ccc(C4CCC(N(CC#N)CC(=O)N(C)C)CC4)nc3c2C(C)C)cn2ncnc2c1C (stereo not drawn) [Example 456]
5 | 2790 nM | 4.3 nM | 6.2 nM | Cc1c(-c2[nH]c3ccc(C4CCC(N(CC#N)CC(=O)N(C)C)CC4)nc3c2C(C)C)cn2ncnc2c1C (stereo not drawn) [Example 459]
6 | 8470 nM | 1.7 nM | 2.6 nM | Cc1c(-c2[nH]c3ccc(C4CCC(N(CCO)CCS(C)(=O)=O)CC4)nc3c2C(C)C)cn2ncnc2c1C (stereo not drawn) [Example 461]
7 | 4540 nM | 8.4 nM | 6.9 nM | CCN(CC(=O)N(C)C)C1CCC(c2ccc3[nH]c(-c4cn5ncnc5c(C)c4C)c(C(C)C)c3n2)CC1 (stereo not drawn) [Example 462]
8 | 16000 nM | 24 nM | 7.4 nM | Cc1c(-c2[nH]c3ccc(C4CCC(N(CCO)CC(=O)N(C)C)CC4)nc3c2C(C)C)cn2ncnc2c1C (stereo not drawn) [Example 463]
9 | 1770 nM | 0.85 nM | 0.68 nM | Cc1c(-c2[nH]c3ccc(C4CCC(NCC5CCCCS5(=O)=O)CC4)nc3c2C(C)C)cn2ncnc2c1C (stereo not drawn) [Example 464]
10 | 5660 nM | 1.9 nM | 1.1 nM | Cc1c(-c2[nH]c3ccc(C4CCC(NC5CCS(=O)(=O)C5)CC4)nc3c2C(C)C)cn2ncnc2c1C (stereo not drawn) [Example 465]
11 | 5800 nM | 204 nM | 59 nM | Cc1c(-c2[nH]c3ccc(C4CCC(N)CC4)nc3c2C(C)C)cn2ncnc2c1C (stereo not drawn) [Example 466]
12 | 413 nM | 3.5 nM | 1.2 nM | CCN(CC(=O)N(C)C)C1CCC(c2ccc3[nH]c(-c4cn5ncnc5c(C)c4C)c(C(C)C)c3n2)CC1 (stereo not drawn) [Example 467]
13 | 1710 nM | 2.9 nM | 0.98 nM | Cc1c(-c2[nH]c3ccc(C4CCC(N)CC4)nc3c2C(C)C)cn2ncnc2c1C (stereo not drawn) [Example 469]
14 | 7420 nM | 6 nM | 1.3 nM | Cc1c(-c2[nH]c3ccc(C4CCC(NC5CCS(=O)(=O)C5)CC4)nc3c2C(C)C)cn2ncnc2c1C (stereo not drawn) [Example 470]
15 | 4710 nM | 3.2 nM | 2.8 nM | Cc1c(-c2[nH]c3ccc(C4CCC(NCC5CCCCS5(=O)=O)CC4)nc3c2C(C)C)cn2ncnc2c1C (stereo not drawn) [Example 471]
16 | 2510 nM | 1.1 nM | 0.34 nM | Cc1c(-c2[nH]c3ccc(C4CCC(NC5(C)COC5)CC4)nc3c2C(C)C)cn2ncnc2c1C (stereo not drawn) [Example 472]
17 | 7370 nM | 9.6 nM | 7.1 nM | Cc1c(-c2[nH]c3ccc(C4CCC(NC5(C)COC5)CC4)nc3c2C(C)C)cn2ncnc2c1C (stereo not drawn) [Example 473]
18 | 1450 nM | 0.43 nM | 0.46 nM | Cc1c(-c2[nH]c3ccc(C4CCC(NCC5(C)COC5)CC4)nc3c2C(C)C)cn2ncnc2c1C (stereo not drawn) [Example 474]
19 | 3500 nM | 2.2 nM | 1.4 nM | Cc1c(-c2[nH]c3ccc(C4CCC(N(CC#N)CC5(S(C)(=O)=O)CC5)CC4)nc3c2C(C)C)cn2ncnc2c1C (stereo not drawn) [Example 475]

Row | Compound | IC50 [1] | IC50 [2] | IC50 [3]
20 | Cc1c(-c2[nH]c3ccc(C4CCC(N(CC#N)CCS(C)(=O)=O)CC4)nc3c2C(C)C)cn2ncnc2c1C (stereo not drawn) [Example 457] | 622 nM | 0.3 nM | 0.32 nM
21 | Cc1c(-c2[nH]c3ccc(C4CCC(N(CC#N)CCS(C)(=O)=O)CC4)nc3c2C(C)C)cn2ncnc2c1C (stereo not drawn) [Example 458] | 9840 nM | 10 nM | 5 nM
